Source: patent publication US20030134329A1, “Cross-species bioactive peptides” (priority 2001, published 2003)

Tests used:
[1] = test system: FLO11; assay: PFLO11-lacZ reporter, β-galactosidase activity; type: cell-based, S. cerevisiae; conditions: for FL011-lacZ (relative expression): Table 1, strain MY1405 with plasmid MB1339, control pTCN23 = 1.0; for FLO11-lacZ (relative expression): Table 2, strain MY1405 with MB1339, control pTCN23 = 1.0
Description: Transformation of S. cerevisiae was by lithium acetate/single-stranded carrier DNA/polyethylene glycol (LiAc/ss-DNA/PEG) protocol (see, e.g., Gietz and Woods (1998), in: Methods in Microbiology, Chapter 26, Brown and Tuite, eds., Academic Press, New York; Agatep et al. (1998), TTO 1:P01525, Technical Tips Online at http://tto.trends.com) with a library of plasmids expressing unique random peptide sequences in the context of a Staphylococcal nuclease “scaffold” to generate more than 20 million independent Ura^+ transformants (Norman et al. (1999), Science 285:591-595). The transformants were replica-plated to YPD plates supplemented with […] G418 to select for clones with increased expression of the invasion-related reporter (FLO11) and consequent G418 resistance. Plates were incubated at 30° C. for 2-4 days and resistant clones were collected in pools (50 pools total) by scraping the colonies off each plate in a small volume of water. Plasmids were isolated as a pool (Hoffman and Winston (1986), Gene 57:267), transformed into E. coli, and re-transformed as a pool into the original selection strain, MY1560. Ura^+ transformants were again replica plated to YPD+100 μg/ml G418 plates. […] Positive clones were further tested for plasmid dependence by (1) examining the correlation between spontaneous loss of the peptide-expressing plasmid and loss of G418 resistance, and (2) recovering the plasmid from the yeast, retransforming into the original selection strain, and characterizing the G418 resistance. […] The remaining candidate peptides were characterized for their effects on expression of PFLO11-lacZ reporter constructs. This was performed by co-transforming the candidate plasmid into S. cerevisiae strain MY1405 (MATα ura3Δ0 his3Δ0::hisG trp1Δ0::hisG) which contains plasmid MB1339 [PFLO11-lacZ TRP1 […]] and measuring β-galactosidase activity.

[2] = test system: SMP1; conditions: Table 2, strain MY1405 with MB1338, control pTCN23 = 1.0
Description: S. cerevisiae strain MY1561 (MATα/MATαΔ::LEU2 ura3Δ::PSMP1-neo/ura3Δ0 leu2Δ0/leu2Δ0 trp1Δ0::hisG/trp1Δ0::hisG/his3Δ0::hisG/his3Δ0::hisG) was transformed with the peptide library as described above to generate 10 million independent Ura^+ clones. The transformed clones were mated to lawns of S. cerevisiae strain MY1406 [MB1337] and subsequently replica-plated to SC-Ura-Trp plates to select for triploids carrying the library clones in addition to the PSMP1-neo reporter. […] The MY1561/MY1406 [MB1337] triploids were replica-plated to YPD plates containing 100, 150, and 200 μg/ml G418, and resistant colonies were picked and retested, and their phenotypes were checked for library plasmid dependence using 5-FOA. Promising candidates were lysed and their plasmids recovered in E. coli, amplified, and reintroduced into MY1561 along with MB 1337(MY1561 is an S. cerevisiae strain and MB 1337 is a plasmid). […] In addition, S. cerevisiae strain MY1405 was transformed with the peptide clones along with MB1338 [PSMP1-lacZ TRP1 2 micron] and MB1339 [PFLO11-lacZ TRP1 2 micron], and the enzyme assays were monitored. […] Peptide inhibitors of invasion were further characterized for their effects on calcofluor resistance, a phenotype associated with mutations in the rim101/pH response pathway.

[3] = test system: FLO11 promoter (PFLO11) fused to the neo gene; assay: PFLO11-neo reporter selection: G418 resistance on YPD; type: cell-based, S. cerevisiae; conditions: strain MY1560, YPD + 100 μg/ml G418
Description: To identify peptides that promote invasion we used S. cerevisiae strain MY1560 (MATα/MATαΔ::LEU2 ura3Δ::PFLO11-neo/ura3Δ0 leu2Δ0/leu2Δ0 trp1Δ0::hisG/trp1Δ10::hisG his3Δ0::hisG/his3Δ0::hisG). This strain contains the FLO11 promoter (PFLO11) fused to the neo gene conferring resistance to the drug G418. FLO11 is a cell-surface flocculin required for pseudohyphal and invasive growth in S. cerevisiae. […] Thus, altered FLO11 expression can be used as an indicator of an altered invasion phenotype.
It was empirically determined that the wild type MY1560 strain (untransformed or transformed with a plasmid representing the peptide library staph nuclease scaffold) is unable to grow on YPD media supplemented with 100 μg/ml G418. In contrast, hyperinvasive strains are resistant to this concentration of the drug and form colonies on G418-supplemented YPD media. Thus, transformation of this strain with an invasion-promoting peptide should render the cells capable of growing on G418-supplemented YPD media. […]

[4] = test system: PHWP1-lacZ reporter; assay: PHWP1-lacZ reporter visual screen on X-Gal plates; type: cell-based, C. albicans
[5] = test system: hyphal transition in C. albicans; assay: serum induction assay of hyphal transition; type: cell-based; conditions: C. albicans transformants, serum inducing media, 37° C., relative to parent staph nuclease scaffold

Substance	FL011-lacZ (relative expression) [1]	further results
HGDGLMRYFWSVAMWT [Clone 5-12-1a, invasion-promoting random peptide expressed in loop of Staphylococcal nuclease scaffold]	2.7	–
LPVSYVGQSTSQGPVW [Clone G4a-6]	–	SMP1-lacZ (relative expression) [2]: 7.8; FLO11-lacZ (relative expression) [1]: 0.4
GAGCAPRGCVVWSSLL [4-3, 1, invasion-promoting random peptide expressed in loop of Staphylococcal nuclease scaffold]	2.5	–
YEAGVILRACLWAVSG [4-17, 1, invasion-promoting random peptide expressed in loop of Staphylococcal nuclease scaffold]	10.5	–
QRIPLIGGVLFIAWIM [Clone 5-11-3a, invasion-promoting random peptide expressed in loop of Staphylococcal nuclease scaffold]	3.0	–
LGYGEAEREMVTCREH [Clone D4a]	–	SMP1-lacZ (relative expression) [2]: 9.1; FLO11-lacZ (relative expression) [1]: 0.1
GRRSRVRWSWPLFKSL [5-28, 3, invasion-promoting random peptide expressed in loop of Staphylococcal nuclease scaffold]	18.2	–
REINWLRFFRLHKVID [5-45, 2, invasion-promoting random peptide expressed in loop of Staphylococcal nuclease scaffold]	6.2	–
SGDAVMGFLLKCLGLQ [5-31, 2, invasion-promoting random peptide expressed in loop of Staphylococcal nuclease scaffold]	12.6	–
LAYGPERYPRACMRWD [Clone B2a]	–	SMP1-lacZ (relative expression) [2]: 8.9; FLO11-lacZ (relative expression) [1]: 0.2
ELAYKFGRDWARLYFS [Clone 5-75-1, invasion-promoting random peptide expressed in loop of Staphylococcal nuclease scaffold]	15.0	–
LPYEVSRVCWPRRLGY [Clone D2e]	–	SMP1-lacZ (relative expression) [2]: 14.3; FLO11-lacZ (relative expression) [1]: 0.1
AFSRRGRRAWSWPVSN [5-48, 2, invasion-promoting random peptide expressed in loop of Staphylococcal nuclease scaffold]	12.9	–
RCPVAHTLCWEVAGCT [Clone 5-43-3b, invasion-promoting random peptide expressed in loop of Staphylococcal nuclease scaffold]	9.6	–
LSYMEGPYWHRSFRAV [Clone G2a]	–	SMP1-lacZ (relative expression) [2]: 7.5; FLO11-lacZ (relative expression) [1]: 0.5
GSNGCVSVSSSVTSFM [5-49, 3, invasion-promoting random peptide expressed in loop of Staphylococcal nuclease scaffold]	2.5	PFLO11-neo Mediated G418^R [3]: +w
PYGPFLLLTPF*A*L [5-32, 1, invasion-promoting random peptide in Staphylococcal nuclease scaffold; * denotes a stop codon; C. albicans expression plasmid MB2756]	15.1	β-galactosidase expression (PHWP1-lacZ reporter) [4]: higher level of β-galactosidase expression; morphological switch between yeast and filamentous growth (hyphal transition) [5]: effective in inducing the morphological switch between yeast and filamentous growth

Substance	FL011-lacZ (relative expression) [1]	further results
RRWEVLRGDRTARLLS [5-25, 2, invasion-promoting random peptide expressed in loop of Staphylococcal nuclease scaffold]	13.7	–
ALARWLEIELHPQGLI [5-16, 3, invasion-promoting random peptide expressed in loop of Staphylococcal nuclease scaffold]	13.3	–
RRWNRLKSWWPCFREQ [Clone 5-18-3b, invasion-promoting random peptide expressed in loop of Staphylococcal nuclease scaffold]	2.6	–
KRKVCLLGGRFLVEWL [4-16, 2, invasion-promoting random peptide expressed in loop of Staphylococcal nuclease scaffold]	14.8	–
MGCVKRLLWGCCMKLT [Clone 5-64-1, invasion-promoting random peptide expressed in loop of Staphylococcal nuclease scaffold]	2.0	–
LTGYAKLLVQLSYFAM [Clone B2c-2]	–	SMP1-lacZ (relative expression) [2]: 6.4; FLO11-lacZ (relative expression) [1]: 0.7
CGLGGCCCEIFWSFSN [5-30, 3, invasion-promoting random peptide expressed in loop of Staphylococcal nuclease scaffold]	7.3	–
LDLDRVSVNRCSFMGF [Clone 5-20-1a, invasion-promoting random peptide expressed in loop of Staphylococcal nuclease scaffold]	2.8	–
GYLRKHRALALGLNLH [4-9, 3, invasion-promoting random peptide expressed in loop of Staphylococcal nuclease scaffold]	11.5	–
KRGRRRSHSCPSLMTD [4-1, 1, invasion-promoting random peptide expressed in loop of Staphylococcal nuclease scaffold]	2.2	–
LYRAFTWPVAKSLRME [5-37, 1, invasion-promoting random peptide expressed in loop of Staphylococcal nuclease scaffold]	6.1	–
GHLWEWSGERWLLRWC [5-23, 1a, invasion-promoting random peptide expressed in loop of Staphylococcal nuclease scaffold]	12.2	–
LGYMRASREMDGWKLL [Clone D2a]	–	SMP1-lacZ (relative expression) [2]: 15.4; FLO11-lacZ (relative expression) [1]: 0.3
EWCEICHRLVWVFCFT [5-34, 3, invasion-promoting random peptide expressed in loop of Staphylococcal nuclease scaffold]	4.1	–
WWRPHERFIWAQYYLA [5-14, 3, invasion-promoting random peptide expressed in loop of Staphylococcal nuclease scaffold]	4.9	–
QPWYRKLRLAPVYPSD [Clone 5-39-1a, invasion-promoting random peptide expressed in loop of Staphylococcal nuclease scaffold]	17.8	–
